# Where “and” joins values, the source holds several entries; their conditions need not be identical. Equal values may be shown once. Where a name gives a salt, the structure may show the parent alone. Read-outs that look alike come from different tables or passages of the source.
# What was measured:
# human α4β2 AChR = human α4β2 AChR (Homo sapiens, UniProt P17787+P43681); assay: cell-based; type: cell-based
# [1] = biological target: [^3H]imipramine binding sites at the human α4β2 AChR (Homo sapiens, UniProt P17787+P43681); settings: for ΔG^20: calculated from Ki, Eq. (4), 293 K
# [2] = ref Nangia et al., 1996; cited from earlier work
# [3] = therapeutic doses, ref Glotzbach and Preskorn, 1982; cited from earlier work
# hα4β2 AChR [4] = biological target: T1, hα4β2 AChR (Homo sapiens, UniProt P17787+P43681); type: binding; settings: for koff: 20 °C; for kon: kon = koff·Ka
# hα4β2 AChR [5] = biological target: T1, hα4β2 AChR; assay: Thermodynamic parameters of imipramine binding; settings: for Ea (dissociation process): Arrhenius plot; for ΔH°: van't Hoff plot; for ΔG^20: Eq. (8); for ΔH^+ (enthalpy change of the transition state): Eq. (10)
# hα4β2 AChR [6] = biological target: T1, hα4β2 AChR; assay: Equilibrium binding of [3H]imipramine to HEK293-hα4β2 AChR membranes
# [7] = desensitized state, presence of 1 μM (−)-cytisine
# [8] = resting state, presence of k-BTx
# [9] = Ki, resting state, absence of k-BTx (no ligand)
# [10] = resting state, absence of k-BTx (no ligand)
# [11] = resting state, absence of k-BTx
# [12] = Epibatidine treated column (desensitized state)
# [13] = κ-BTx treated column (resting state)
compound,measurement,setting,value
"CNC1(C)C2CCC(C2)C1(C)C (racemic) [(±)-Mecamylamine, (±)-mecamylamine hydrochloride]",IC50,human α4β2 AChR,3000 ± 700 nM
same,nH (Hill coefficient),human α4β2 AChR,1.17 ± 0.12
same,IC50,"[1]; IC50, desensitized state, presence of 1 μM (−)-cytisine",209000 ± 34000 nM
same,IC50,"[1]; IC50, resting state, presence of k-BTx",135000 ± 19000 nM
same,inhibition of specific [3H]imipramine binding,"[1]; at maximum concentration tested, resting and desensitized states",~ 70%
same,nH (Hill coefficient),[1]; [7],0.58 ± 0.06
same,nH (Hill coefficient),[1]; [8],0.53 ± 0.05
same,pKa,[2],11.4
"Clc1ccc(C2CC3CCC2N3)cn1 (racemic) [(±)-epibatidine, (±)-Epibatidine]",nH (Hill coefficient),"human α4β2 AChR; activation of hα4β2 AChR, Ca2+ influx in HEK293-hα4β2 cells",1.03 ± 0.04
"CN(C)CCC=C1c2ccccc2CCc2ccccc21 [Amitriptyline, amitriptyline hydrochloride]",IC50,human α4β2 AChR,2200 ± 600 nM
same,nH (Hill coefficient),human α4β2 AChR,1.50 ± 0.08
same,Ki,[1]; [9],1100 ± 100 nM
same,nH (Hill coefficient),[1]; [10],0.98 ± 0.11
same,ΔG^20,[1]; [11],-7.96 ± 0.072 kcal/mol
same,concentration in the rat brain,[3],1000 to 10000 nM
"CN(C)CCC=C1c2ccccc2COc2ccccc21 [Doxepin, doxepin hydrochloride]",IC50,human α4β2 AChR,6800 ± 1600 nM
same,nH (Hill coefficient),human α4β2 AChR,1.32 ± 0.29
same,Ki,[1],2100 ± 200 nM
same,nH (Hill coefficient),[1]; [10],0.73 ± 0.05
same,ΔG^20,[1]; [11],-7.6 ± 0.072 kcal/mol
"CN(C)CCCN1c2ccccc2CCc2ccccc21 [Imipramine, Imipramine hydrochloride]",IC50,human α4β2 AChR,5400 ± 1200 nM
same,nH (Hill coefficient),human α4β2 AChR,1.39 ± 0.13
same,Ki,"[1]; Ki, desensitized state, presence of 1 μM (−)-cytisine",970 ± 100 nM
same,Ki,[1]; [9],1100 ± 100 nM
same,Ki,"[1]; Ki, resting state, presence of 0.1 μM k-BTx",930 nM
same,nH (Hill coefficient),[1]; [7],0.84 ± 0.07
same,ΔG^20,"[1]; desensitized state, presence of (−)-cytisine",-8.05 ± 0.048 kcal/mol
same,nH (Hill coefficient),[1]; [10],0.73 ± 0.04
same,ΔG^20,[1]; [11],-7.98 ± 0.048 kcal/mol
same,nH (Hill coefficient),[1]; [8],0.87 ± 0.07
same,Ka,hα4β2 AChR [4]; [12],2.52 ± 0.08 µM⁻¹
same,koff,hα4β2 AChR [4]; [12],0.076 ± 0.002 s⁻¹
same,ΔG^20,"hα4β2 AChR [4]; Epibatidine treated column (desensitized state), Eq. (4)",-8.58 ± 0.024 kcal/mol
same,kon,hα4β2 AChR [4]; [12],192000 ± 3000 M⁻¹ s⁻¹
same,Ka,hα4β2 AChR [4]; [13],2.54 ± 0.07 µM⁻¹
same,koff,hα4β2 AChR [4]; [13],0.09 ± 0.001 s⁻¹
same,kon,hα4β2 AChR [4]; [13],229000 ± 8000 M⁻¹ s⁻¹
same,−TΔS°,hα4β2 AChR [5]; [12],-5.93 kcal/mol and -5.93 ± 0.382 kcal/mol
same,Ea (dissociation process),hα4β2 AChR [5]; [12],2.96 ± 0.263 kcal/mol
same,ΔH°,hα4β2 AChR [5]; [12],-2.65 kcal/mol and -2.65 ± 0.382 kcal/mol
same,ΔG^20,hα4β2 AChR [5]; [12],-8.58 ± 0.478 kcal/mol
same,ΔH^+ (enthalpy change of the transition state),hα4β2 AChR [5]; [12],2.37 ± 0.263 kcal/mol
same,−TΔS°,hα4β2 AChR [5]; [13],-3.85 ± 0.55 kcal/mol
same,Ea (dissociation process),hα4β2 AChR [5]; [13],4.54 ± 0.454 kcal/mol
same,ΔH°,hα4β2 AChR [5]; [13],-4.76 ± 0.55 kcal/mol
same,ΔG^20,hα4β2 AChR [5]; [13],-8.56 ± 0.693 kcal/mol
same,ΔH^+ (enthalpy change of the transition state),hα4β2 AChR [5]; [13],3.97 ± 0.454 kcal/mol
[^3H]Imipramine,"specific activity (Bmax, imipramine binding sites)","hα4β2 AChR [6]; HEK293-hα4β2 membranes, x-intersect of Rosenthal-Scatchard plot",8.6 ± 0.5 pmol/mg protein
same,Kd,"hα4β2 AChR [6]; resting/no ligand state, Rosenthal-Scatchard plot, 2 h at RT",830 ± 80 nM
